Experimental findings from patent US12172983B2, “EGFR inhibitors” (Blueprint Medicines Corporation, priority 2019, dated 2024) are described below.

Where two headings read alike, the source gives them in different places.

For assay [1], the system named is phosphorylation of EGFR (Tyr1068) in NCI-H1975 cell line that harbors the EGFR L858R T790M mutations. Nature of the assay: NCI-H1975 pEGFR AlphaLISA assay. The format is cell-based. The conditions noted are these: 4-5 hours incubation, read-out: Ext pEGFR H1975. Put shortly: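 NCI-H1975 cells (EGFR L858R/T790M) seeded overnight, then treated with compound for 4-5 h at 37 °C/5% CO2. After lysis, p-EGFR (Tyr1068) quantified by AlphaLISA SureFire Ultra with acceptor then donor beads; IC50 fitted from percent inhibition versus log concentration.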

Assay [2] addresses T1, EGFR (L858R T790M C797S) (Homo sapiens, UniProt P00533, C797S/L858R/T790M).
T1 construct: purchased SignalChem E10-122VG
Nature of the assay: Biochemical EGFR inhibition assay (Caliper mobility shift), EGFR LRTMCS mutant. The conditions noted are these: inhibitory activity against EGFR LRTMCS mutant; apparent IC50; read-out: Ext Enz LRTMCS. The procedure, abridged: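 Apparent IC50s were derived by plotting percent activity against the log of compound concentration. Activity was measured as phosphopeptide electrophoretically separated from substrate, after reactions at room temperature reached 10% to 20% phosphorylation and were halted with 35 mM EDTA.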

The mark [3] stands for this setting: inhibition of phosphorylation of mutant EGFR in NCI-H1975 cells.
The mark [4] stands for this setting: Homo sapiens, NCI-H1975, inhibition of phosphorylation of mutant EGFR in NCI-H1975 cells.

T1 sequence (P00533 25-1210 T790M/C797S/L858R): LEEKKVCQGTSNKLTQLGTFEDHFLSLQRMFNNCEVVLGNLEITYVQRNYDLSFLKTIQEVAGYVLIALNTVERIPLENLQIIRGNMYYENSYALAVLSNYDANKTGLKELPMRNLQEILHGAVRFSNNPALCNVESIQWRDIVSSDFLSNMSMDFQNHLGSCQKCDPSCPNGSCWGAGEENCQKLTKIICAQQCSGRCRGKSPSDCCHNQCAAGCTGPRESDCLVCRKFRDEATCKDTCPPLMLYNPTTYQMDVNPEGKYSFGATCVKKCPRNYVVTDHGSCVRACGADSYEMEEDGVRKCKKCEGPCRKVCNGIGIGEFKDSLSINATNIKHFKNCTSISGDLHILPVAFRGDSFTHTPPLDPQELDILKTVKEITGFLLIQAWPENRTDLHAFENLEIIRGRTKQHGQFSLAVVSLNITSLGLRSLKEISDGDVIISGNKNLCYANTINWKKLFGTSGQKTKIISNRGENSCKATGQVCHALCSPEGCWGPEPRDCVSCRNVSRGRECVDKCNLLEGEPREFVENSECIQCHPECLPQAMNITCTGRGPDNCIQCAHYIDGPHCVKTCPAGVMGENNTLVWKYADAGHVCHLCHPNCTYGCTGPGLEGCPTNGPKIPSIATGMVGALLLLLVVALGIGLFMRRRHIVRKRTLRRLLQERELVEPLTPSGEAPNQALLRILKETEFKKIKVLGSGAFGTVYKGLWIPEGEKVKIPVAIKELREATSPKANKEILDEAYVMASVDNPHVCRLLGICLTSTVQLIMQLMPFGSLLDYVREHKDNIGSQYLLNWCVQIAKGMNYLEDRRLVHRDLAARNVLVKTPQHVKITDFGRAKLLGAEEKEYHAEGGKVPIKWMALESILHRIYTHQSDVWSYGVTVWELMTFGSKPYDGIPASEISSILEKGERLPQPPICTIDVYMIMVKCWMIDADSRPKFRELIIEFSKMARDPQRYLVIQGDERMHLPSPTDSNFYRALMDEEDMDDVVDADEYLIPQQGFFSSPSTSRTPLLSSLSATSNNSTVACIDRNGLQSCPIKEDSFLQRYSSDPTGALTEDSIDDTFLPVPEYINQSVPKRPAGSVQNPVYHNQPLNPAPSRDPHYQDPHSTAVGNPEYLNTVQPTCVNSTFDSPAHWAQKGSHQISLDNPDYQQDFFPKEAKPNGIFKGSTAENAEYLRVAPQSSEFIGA

As for `CC(C)c1ccc(N2C[C@H](CS(C)(=O)=O)[C@H]2C)c2cnc(Nc3ccnc(N4CC[C@@H](OC[C@H](C)O)[C@@H](F)C4)n3)cc12` (single isomer, unassigned) [Compound 248, (2R)-1-{[(3S,4R)-3-fluoro-1-[4-({8-[(2R,3S)-3-(methanesulfonylmethyl)-2-methylazetidin-1-yl]-5-(propan-2-yl)isoquinolin-3-yl}amino)pyrimidin-2-yl]piperidin-4-yl]oxy}propan-2-ol or (2S)-1-{[(3S,4R)-3-fluoro-1-[4-({8-[(2R,3S)-3-(methanesulfonylmethyl)-2-methylazetidin-1-yl]-5-(propan-2-yl)isoquinolin-3-yl}amino)pyrimidin-2-yl]piperidin-4-yl]oxy}propan-2-ol], the values for the IC50 in assay [1] (setting [3]) and in assay [2] were ≤ 10 nM and ≤ 15 nM, respectively.
For `CC(C)c1ccc(N2C[C@H](CS(C)(=O)=O)[C@H]2C)c2cnc(Nc3ccnc(N4CC[C@@H](OCCO)C(F)(F)C4)n3)cc12` (single isomer, unassigned) [Compound 251], the IC50 is ≤ 10 nM in assay [1] (setting [4]) and 15.1 to 20 nM in assay [2].
For the molecule `CC(C)c1ccc(N2C[C@H](CS(C)(=O)=O)[C@H]2C)c2cnc(Nc3ccnc(N4CC[C@H](OCCO)C(F)(F)C4)n3)cc12` (single isomer, unassigned) [Compound 252], the IC50 in assay [1] (setting [4]) was ≤ 10 nM; in assay [2], 20.1 to 30 nM.
As to `CC(C)c1cnc(N2C[C@H](CS(C)(=O)=O)[C@H]2C)c2cnc(Nc3ccnc(N4CC[C@H]5COC[C@H]54)n3)cc12` (single isomer, unassigned) [Compound 266, N-{2-[(3aR,6aS)-hexahydro-1H-furo[3,4-b]pyrrol-1-yl]pyrimidin-4-yl}-8-[(2R,3S)-3-(methanesulfonylmethyl)-2-methylazetidin-1-yl]-5-(propan-2-yl)-2,7-naphthyridin-3-amine or N-{2-[(3aS,6aR)-hexahydro-1H-furo[3,4-b]pyrrol-1-yl]pyrimidin-4-yl}-8-[(2R,3S)-3-(methanesulfonylmethyl)-2-methylazetidin-1-yl]-5-(propan-2-yl)-2,7-naphthyridin-3-amine], the IC50 in assay [1] (setting [4]) was ≤ 10 nM; in assay [2] it was ≤ 15 nM.
For `CC(C)c1ncc(N2C[C@H](CS(C)(=O)=O)[C@H]2C)c2cnc(Nc3ccnc(N4CC[C@H]5COC[C@H]54)n3)cc12` (single isomer, unassigned) [Compound 267, N-(2-((3aR,6aS)-hexahydro-1H-furo[3,4-b]pyrrol-1-yl)pyrimidin-4-yl)-5-isopropyl-8-((2R,3S)-2-methyl-3-((methylsulfonyl)methyl)azetidin-1-yl)-2,6-naphthyridin-3-amine or N-(2-((3aS,6aR)-hexahydro-1H-furo[3,4-b]pyrrol-1-yl)pyrimidin-4-yl)-5-isopropyl-8-((2R,3S)-2-methyl-3-((methylsulfonyl)methyl)azetidin-1-yl)-2,6-naphthyridin-3-amine], in that order: ≤ 10 nM and ≤ 15 nM.
Regarding `CC(C)c1ccc(N2C[C@H](CS(C)(=O)=O)[C@H]2C)c2cnc(Nc3ccnc(N4CC[C@H](F)[C@H](O)C4)n3)cc12` (single isomer, unassigned) [Compound 268, (3R,4S)-4-fluoro-1-[4-({8-[(2R,3S)-3-(methanesulfonylmethyl)-2-methylazetidin-1-yl]-5-(propan-2-yl)isoquinolin-3-yl}amino)pyrimidin-2-yl]piperidin-3-ol or (3S,4R)-4-fluoro-1-[4-({8-[(2R,3S)-3-(methanesulfonylmethyl)-2-methylazetidin-1-yl]-5-(propan-2-yl)isoquinolin-3-yl}amino)pyrimidin-2-yl]piperidin-3-ol], the IC50 in assay [1] (setting [4]) was 20.1 to 30 nM; in assay [2], 30.1 to 100 nM.
For `CC(C)c1ccc(N2C[C@H](CS(C)(=O)=O)[C@H]2C)c2cnc(Nc3ccnc(N4CC[C@@H](F)[C@@H](O)C4)n3)cc12` (single isomer, unassigned) [Compound 269, (3S,4R)-4-fluoro-1-[4-({8-[(2R,3S)-3-(methanesulfonylmethyl)-2-methylazetidin-1-yl]-5-(propan-2-yl)isoquinolin-3-yl}amino)pyrimidin-2-yl]piperidin-3-ol or (3R,4S)-4-fluoro-1-[4-({8-[(2R,3S)-3-(methanesulfonylmethyl)-2-methylazetidin-1-yl]-5-(propan-2-yl)isoquinolin-3-yl}amino)pyrimidin-2-yl]piperidin-3-ol], in that order: ≤ 10 nM and ≤ 15 nM.
Regarding `CC(C)c1ccc(N2C[C@H](CS(C)(=O)=O)[C@H]2C)c2cnc(Nc3ccnc(N4CC[C@](F)(CO)C4)n3)cc12` (single isomer, unassigned) [Compound 270, [(3R)-3-fluoro-1-[4-({8-[(2R,3S)-3-(methanesulfonylmethyl)-2-methylazetidin-1-yl]-5-(propan-2-yl)isoquinolin-3-yl}amino)pyrimidin-2-yl]pyrrolidin-3-yl]methanol or [(3S)-3-fluoro-1-[4-({8-[(2R,3S)-3-(methanesulfonylmethyl)-2-methylazetidin-1-yl]-5-(propan-2-yl)isoquinolin-3-yl}amino)pyrimidin-2-yl]pyrrolidin-3-yl]methanol], the IC50 is 10.1 to 20 nM in assay [1] (setting [4]) and ≤ 15 nM in assay [2].
As to `CC(C)c1ccc(N2C[C@H](CS(C)(=O)=O)[C@H]2C)c2cnc(Nc3ccnc(N4CC[C@](F)(CO)C4)n3)cc12` (single isomer, unassigned) [Compound 271, [(3S)-3-fluoro-1-[4-({8-[(2R,3S)-3-(methanesulfonylmethyl)-2-methylazetidin-1-yl]-5-(propan-2-yl)isoquinolin-3-yl}amino)pyrimidin-2-yl]pyrrolidin-3-yl]methanol or [(3R)-3-fluoro-1-[4-({8-[(2R,3S)-3-(methanesulfonylmethyl)-2-methylazetidin-1-yl]-5-(propan-2-yl)isoquinolin-3-yl}amino)pyrimidin-2-yl]pyrrolidin-3-yl]methanol], the IC50 is ≤ 10 nM in assay [1] (setting [3]) and ≤ 15 nM in assay [2].
With `CCS(=N)(=O)CC1CN(c2ccc(C(C)C)c3cc(Nc4ccnc(N5CCC(OC)C(F)C5)n4)ncc23)C1` (single isomer, unassigned) [Compound 275, (S)-ethyl({1-[3-({2-[(3R,4S)-3-fluoro-4-methoxypiperidin-1-yl]pyrimidin-4-yl}amino)-5-(propan-2-yl)isoquinolin-8-yl]azetidin-3-yl}methyl)imino-λ^6-sulfanone or (R)-ethyl({1-[3-({2-[(3R,4S)-3-fluoro-4-methoxypiperidin-1-yl]pyrimidin-4-yl}amino)-5-(propan-2-yl)isoquinolin-8-yl]azetidin-3-yl}methyl)imino-λ^6-sulfanone], the IC50 in assay [1] (setting [3]) was 30.1 to 50 nM; in assay [2], 15.1 to 20 nM.
Take `CCS(=O)(=O)CC1CN(c2ccc(C(C)C)c3cc(Nc4ccnc(N5CC[C@](C)(O)[C@H](F)C5)n4)ncc23)C1` (single isomer, unassigned) [Compound 277]: the IC50 in assay [1] (setting [4]) is 10.1 to 20 nM; in assay [2], ≤ 15 nM.
For `[2H]C([2H])([2H])O[C@@H]1CCN(c2nccc(Nc3cc4c(C(C)C)cnc(N5C[C@H](CS(C)(=O)=O)[C@H]5C)c4cn3)n2)C[C@@H]1F` (single isomer, unassigned) [Compound 284], in that order: ≤ 10 nM and ≤ 15 nM.
